Earlier results in patent US20160074333A1, “Pharmaceutical compositions of tamsulosin or salts thereof” (WOCKHARDT LIMITED, priority 2013, published 2016).
Where a name gives a salt, the structure may show the parent alone. Read-outs that look alike come from different tables or passages of the source.

solubility (in ethanol): slightly soluble
solubility (in ether): practically insoluble
solubility (in glacial acetic acid): slightly soluble
solubility (in methanol): sparingly soluble
solubility (in water): sparingly soluble
Compound: CCOc1ccccc1OCCN[C@H](C)Cc1ccc(OC)c(S(N)(=O)=O)c1 [Tamsulosin hydrochloride, (-)-(R)-5-[2-[[2-(o-Ethoxyphenoxy)ethyl]amino]propyl]-2-methoxybenzene sulfonamide, monohydrochloride]
